This note sets out measurements from patent US8785425B2, “11β-hydroxyandrosta-4-ene-3-ones” (Sun Pharma Advanced Research Company Ltd., priority 2006, dated 2014).

Marks after values point to notes of the source that are not given here.

Series [1] concerns cotton pellet induced granuloma. Briefly: Cotton pellet granuloma (compound impregnated in pellet). As to conditions: SD rats. It is filed as in vivo. Here is the method:
SD rats were used for assessing anti-inflammatory activity of test compound using cotton pellet granuloma method. Sterilized cotton pellets weighing 20 mg were prepared. Test compounds were dissolved in acetone so as to get the required quantity for each cotton pellet in 500 μl. Different pellets were impregnated with 500 μl of acetone to contain required quantity of test compounds and allowed to dry. Vehicle control pellets were impregnated with 500 μl acetone. Rats were made into different groups. Two cotton pellets were surgically implanted into the scapular region of each rat. On sixth day of such implantation, pellets along with granuloma were taken out. Thymus gland was also separated from each animal and weighed. The pellets with granuloma were dried for 20 hrs at 60° C. and weighed. Mean weights of dry granuloma and thymus, body weight gain/100 g body weights were calculated.

A further series deals with T1, glucocorticoid receptors (Homo sapiens, UniProt P04150).
T1 construct: host or cells: Human HeLa cells
T1 sequence (P04150 1-777): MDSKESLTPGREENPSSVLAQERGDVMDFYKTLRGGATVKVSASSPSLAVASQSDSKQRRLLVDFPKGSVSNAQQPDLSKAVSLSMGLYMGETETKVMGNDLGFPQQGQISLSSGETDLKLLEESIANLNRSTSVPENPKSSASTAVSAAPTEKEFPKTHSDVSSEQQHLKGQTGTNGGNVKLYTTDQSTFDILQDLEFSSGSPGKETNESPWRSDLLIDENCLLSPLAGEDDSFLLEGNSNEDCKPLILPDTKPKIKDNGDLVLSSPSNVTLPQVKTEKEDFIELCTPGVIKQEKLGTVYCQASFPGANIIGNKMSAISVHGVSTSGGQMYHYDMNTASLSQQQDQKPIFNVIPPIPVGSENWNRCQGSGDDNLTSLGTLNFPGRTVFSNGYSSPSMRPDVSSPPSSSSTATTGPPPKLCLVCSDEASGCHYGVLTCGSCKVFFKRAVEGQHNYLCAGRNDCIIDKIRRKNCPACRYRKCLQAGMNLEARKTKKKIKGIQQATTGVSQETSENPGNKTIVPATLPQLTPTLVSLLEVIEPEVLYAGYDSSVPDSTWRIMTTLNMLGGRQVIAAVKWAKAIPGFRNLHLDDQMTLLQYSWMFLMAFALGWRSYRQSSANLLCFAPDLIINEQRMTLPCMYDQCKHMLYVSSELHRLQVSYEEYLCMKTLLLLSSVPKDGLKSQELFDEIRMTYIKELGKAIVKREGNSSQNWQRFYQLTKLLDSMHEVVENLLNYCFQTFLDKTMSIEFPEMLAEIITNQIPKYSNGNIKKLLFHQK
Nature of the series: Glucocorticoid receptor binding assay ([3H]dexamethasone radioligand). As to conditions: HeLa cells transfected with glucocorticoid receptors. The procedure: The steroid receptor binding assay were performed by MDS Pharma Services at their Taipei (Taiwan) pharmacology laboratory.
The activity of test compounds on glucocorticoid receptor was assessed using radioligand binding assays. […] Free [^3H]dexamethasone was removed from the medium by centrifugation and concentration of receptor bound ligand was determined in the supernatant by liquid scintillation counting.
The % inhibition was evaluated using a single concentration of test compound and the corresponding radiolabeled ligand. Results are presented as the percent inhibition of specific binding. The values are average of duplicate determinations for each concentration.

In series [2] the test system is Sephadex induced lung edema. Briefly: in vivo. As to conditions: SD rat. The procedure:
Sephadex G-200 was prepared in sterile saline (10 mg/ml) and allowed to swell for at least 3 days at room temperature. Test compounds were prepared as suspensions by grinding and sonicating the solid in chilled saline. All the compounds were administered intratracheally at 24 hrs and 2 hrs prior to intratracheal administration of Sephadex (5 mg/kg) under light ether anesthesia. Vehicle control animals were administered vehicle instead of Sephadex. At 24 hr after Sephadex instillation, lung and thymus were excised from individual animals and weighed. Wet weight of lung and thymus was corrected for 100 g of initial body weight. The percentage increase in lung weight caused by Sephadex and its inhibitions by the compounds, were calculated. The percentage inhibitions of thymus compared to vehicle control group were also calculated.

The subject of series [3] is croton oil induced ear edema. Briefly: Croton oil ear edema. Conditions: inhibition at 1.6 μg, applied to ear, mice. It is filed as in vivo, Mice (male, CD-1). Here is the method: Mice (male, CD-1) were made into different groups. Test compounds were dissolved in pyridine-water-acetone (4:2:14) solution […] of compound or vehicle solution was applied to the left ear of the mice. The right ear of each mouse was applied simultaneously with 10 μl of pyridine:water:acetone (4:2:14) solution. After 2 hrs of compound or vehicle application, 10 μl of croton oil solution was applied to the left ear of all animals. After 6 hr of croton oil treatment the animals were sacrificed; ears were excised and weighed separately.

Series [4] relates to liver glycogen deposition. It is filed as in vivo, Male Sprague Dawley rats. As to conditions: 3 mg/kg intratracheally, 2 doses 24 hrs apart, adrenalectomized rats. The procedure: Male Sprague Dawley rats, weighing 190-220 g were bilaterally adrenalectomized and maintained on 0.9% saline solution throughout the experiment. On day 5th and 6th of adrenalectomy, animals were made into different groups, test compounds prepared in cold saline (sonicated for 30 min) were instilled intratracheally 2 doses@3 mg/kg, 24 hrs apart. At 15 hrs after the last treatment, animals were sacrificed and livers were excised and weighed. The glycogen content of the livers was determined by anthrone method. Briefly, a weighed quantity of liver tissue was homogenized with 5% trichloroacetic acid, supernatant mixed with ethanol and kept overnight for precipitation. The glycogen thus extracted was estimated as glucose generated after acid hydrolysis by addition of anthrone reagent at 620 nm. Glycogen content was expressed as mg/100 g liver.

For the compound “6α,9α-Difluoro-11β-hydroxy-16α-methyl-3-oxo-17α-propionyloxyandrosta-1,4-diene-17β-carbonylsulfenic acid (4-trifluoromethylphenyl)methyl eseter. [IC.8]”, in series [1] (dose 3 mcg per pellet), the “Mean % Inhibition of Granuloma” value was 45.15% and the “Thymus wt. (% Decrease)” value is on record as 3.38%. Regarding `CCC(=O)O[C@]1(C(=O)SCC(=O)c2ccc(C(F)(F)F)cc2)[C@H](C)CC2C3C[C@H](F)C4=CC(=O)C=C[C@]4(C)[C@@]3(F)[C@@H](O)C[C@@]21C` (stereo partly drawn) [IA.38, S-[2-Oxo-2-(4-trifluoromethylphenyl)ethyl]6α,9α-difluoro-11β-hydroxy-16α-methyl-3-oxo-17α-propionyloxyandrosta-1,4-diene-17β-carbothioate], in series [1] (dose 10 mcg per pellet), the “Mean % Inhibition of Granuloma” value is reported as 67.17%.

In the case of `CCC(=O)O[C@]1(C(=O)OCC(=O)c2ccccc2)[C@H](C)CC2C3C[C@H](F)C4=CC(=O)C=C[C@]4(C)[C@@]3(F)[C@@H](O)C[C@@]21C` (stereo partly drawn) [IA.44, 2-Phenyl-2-oxoethyl 6α,9α-difluoro-11β-hydroxy-16α-methyl-3-oxo-17α-propionyloxyandrosta-1,4-diene-17β-carboxylate], the “Mean % Inhibition of Granuloma” value in series [1] (dose 1000 mcg per pellet) came out at 71.79%. Consider `CCC(=O)O[C@]1(C(=O)SC(C)(C)C(=O)c2ccccc2)[C@H](C)CC2C3C[C@H](F)C4=CC(=O)C=C[C@]4(C)[C@@]3(F)[C@@H](O)C[C@@]21C` (stereo partly drawn) [IA.59, S-[1,1-Dimethyl-2-oxo-2-phenylethyl]6α,9α-difluoro-11β-hydroxy-16α-methyl-3-oxo-17α-propionyloxyandrosta-1,4-diene-17β-carbothioate], for which the “Mean % Inhibition of Granuloma” value in series [1] (dose 1000 mcg per pellet) is reported as 76.86%. The compound `CCC(=O)O[C@]1(C(=O)SCC#CCO)[C@H](C)CC2C3C[C@H](F)C4=CC(=O)C=C[C@]4(C)[C@@]3(F)[C@@H](O)C[C@@]21C` (stereo partly drawn) [IB.2, S-(4-Hydroxy-but-2-ynyl) 6α,9α-difluoro-11β-hydroxy-16α-methyl-3-oxo-17α-propionyloxyandrosta-1,4-diene-17β-carbothioate] displayed an inhibition at 0.003 µM on glucocorticoid receptors (% inhibition at 3 nM) of 55%. `C[C@@H]1CC2C3C[C@H](F)C4=CC(=O)C=C[C@]4(C)[C@@]3(F)[C@@H](O)C[C@]2(C)[C@@]1(OC(=O)c1ccco1)C(=O)SC/C=C\CO` (stereo partly drawn) [IB.15, S-(4-Hydroxy-(Z)-but-2-enyl) 6α,9α-difluoro-17α-[(2-furanylcarbonyl)oxy]-11β-hydroxy-16α-methyl-3-oxoandrosta-1,4-diene-17β-carbothioate] returned an inhibition at 0.01 µM on glucocorticoid receptors (% inhibition at 10 nM) of 83%. Also, the “Mean % inhibition Lung edema” value was determined as 70.3% in series [2] (dose 1000 mcg/kg intratracheally) and 71.1% in series [2] (dose 3000 mcg/kg intratracheally).

Regarding `CCCCC(=O)OCC#CCSC(=O)[C@@]1(OC(=O)CC)[C@H](C)CC2C3C[C@H](F)C4=CC(=O)C=C[C@]4(C)[C@@]3(F)[C@@H](O)C[C@@]21C` (stereo partly drawn) [IB.35, S-[4-n-Butylcarbonyloxy-but-2-ynyl]6α,9α-difluoro-11β-hydroxy-16α-methyl-3-oxo-17α-propionyloxyandrosta-1,4-diene-17β-carbothioate], the “Mean % Inhibition (croton oil ear edema)” value in series [3] is 60.18^a %. In the case of `CCOC(=O)C(=O)OC/C=C/CSC(=O)[C@@]1(OC(=O)CC)[C@H](C)CC2C3C[C@H](F)C4=CC(=O)C=C[C@]4(C)[C@@]3(F)[C@@H](O)C[C@@]21C` (stereo partly drawn) [IB.44, S-[4-(2-Ethoxy-1,2-dioxoethyl)oxy-(E)-but-2-enyl]6α,9α-difluoro-11β-hydroxy-16α-methyl-3-oxo-17α-propionyloxyandrosta-1,4-diene-17β-carbothioate], in series [3], the “Mean % Inhibition (croton oil ear edema)” value is on record as 75.19^a %. In turn, `C[C@@H]1CC2C3C[C@H](F)C4=CC(=O)C=C[C@]4(C)[C@@]3(F)[C@@H](O)C[C@]2(C)[C@@]1(OC(=O)c1ccco1)C(=O)SCC#CCOC(=O)N(C)C` (stereo partly drawn) [IB.103, S-[4-(N,N-Dimethylaminocarbonyloxy)-but-2-ynyl]6α,9α-difluoro-17α-[(2-furanyl-carbonyl)oxy]-11β-hydroxy-16α-methyl-3-oxoandrosta-1,4-diene-17β-carbothioate] displayed an inhibition at 0.01 µM at glucocorticoid receptors (% inhibition at 10 nM) of 78%. Turning to `CC1CC2C3CC(F)C4=CC(=O)C=CC4(C)C3(F)C(O)CC2(C)C1(OC(=O)c1ccco1)C(=O)SOCc1ccc(C(F)(F)F)cc1` (stereo not drawn) [IC.6, 6α,9α-Difluoro-17α-[(2-furanylcarbonyl)oxy]-11β-hydroxy-16α-methyl-3-oxoandrosta-1,4-diene-17β-carbonylsulfenic acid (4-trifluoromethylphenyl)methyl ester.], in series [1] (dose 1000 mcg per pellet), the “Mean % Inhibition of Granuloma” value was determined as 84.96% and the “Thymus wt. (% Decrease)” value worked out at 10.96%. With `CC1CC2C3CC(F)C4=CC(=O)C=CC4(C)C3(F)C(O)CC2(C)C1(OC(=O)c1ccco1)C(=O)SOCc1ccc(Cl)cc1` (stereo not drawn) [IC.7, 6α,9α-Difluoro-17α-[(2-furanylcarbonyl)oxy]-11β-hydroxy-16α-methyl-3-oxoandrosta-1,4-diene-17β-carbonylsulfenic acid (4-chlorophenyl)methyl ester.], on glucocorticoid receptors (% inhibition at 10 nM), the “Glucocorticoid receptor binding % inhibition” value is 41^b %. For the compound `CC1CC2C3CCC4=CC(=O)C=CC4(C)C3(F)C(O)CC2(C)C1(OC(=O)c1ccco1)C(=O)SOCc1ccc(F)cc1` (stereo not drawn) [IC.9, 9α-Fluoro-17α-[(2-furanylcarbonyl)oxy]-11β-hydroxy-16α-methyl-3-oxoandrosta-1,4-diene-17β-carbonylsulfenic acid (4-fluorophenyl)methyl ester.], in series [1] (dose 3 mcg per pellet), the “Mean % Inhibition of Granuloma” value is 34.3% and the “Thymus wt. (% Decrease)” value was determined as 2.51%. With `CCC(=O)O[C@]1(C(=O)SC)[C@H](C)C[C@H]2[C@@H]3C[C@H](F)C4=CC(=O)C=C[C@]4(C)[C@@]3(F)[C@@H](O)C[C@@]21C` [IC.13, 6α,9α-Difluoro-11β-hydroxy-16α-methyl-3-oxo-17α-propionyloxyandrosta-1,4-diene-17β-carbonylsulfenic acid methyl ester.], in series [3], the “Mean % Inhibition (croton oil ear edema)” value was 41.79^a %. For the compound `COSC(=O)C1(OC(=O)c2ccco2)C(C)CC2C3CC(F)C4=CC(=O)C=CC4(C)C3(F)C(O)CC21C` (stereo not drawn) [IC.14, 6α,9α-Difluoro-17α-[(2-furanylcarbonyl)oxy]-11β-hydroxy-16α-methyl-3-oxoandrosta-1,4-diene-17β-carbonylsulfenic acid methyl ester], in series [3], the “Mean % Inhibition (croton oil ear edema)” value was 61.46^a %. Take `C[C@@H]1C[C@H]2[C@@H]3CCC4=CC(=O)C=C[C@]4(C)[C@@]3(Cl)[C@@H](O)C[C@]2(C)[C@@]1(OC(=O)c1ccco1)C(=O)CCl` [Mometasone furoate, (11β,16α)-9,21-Dichloro-17-[(2-furanylcarbonyl)oxy]-11-hydroxy-16-methylpregna-1,4-diene-3,20-dione]: in series [4], the “% Inhibition of thymus” value is 43.51% and the Glycogen content came to 1117.32 mg/100 g liver.

What is called inhibition is the change of the read-out against control, counted positive when it falls.
